Laboratory results from ChEMBL document CHEMBL5390317, “Novel Indane-Containing NBTIs with Potent Anti-Gram-Negative Activity and Minimal hERG Inhibition” (ACS Med Chem Lett, 2023).
≈ marks a conversion by molar mass, not a printed value.

Experiments:
Pseudomonas aeruginosa [1] = assay: Antibacterial activity against Pseudomonas aeruginosa NCTC 13437 assessed as inhibition in bacterial growth incubated for 20 to 24 hrs by CLSI based broth microdilution method; format: functional; conditions: Pseudomonas aeruginosa, NCTC 13437, time 20-24 hrs; read-out: MIC
[2] = Inhibition of Escherichia coli topoisomerase 4 incubated for 120 mins by Transcreener ADP2 FI assay
Staphylococcus aureus [3] = assay: Antibacterial activity against Staphylococcus aureus ATCC 29213 assessed as inhibition in bacterial growth incubated for 20 to 24 hrs by CLSI based broth microdilution method; format: functional; conditions: Staphylococcus aureus, ATCC 29213; time 20-24 hrs; read-out: MIC
Escherichia coli [4] = assay: Antibacterial activity against Escherichia coli K-12 BW25113 deltaTolC assessed as inhibition in bacterial growth incubated for 20 to 24 hrs by CLSI based broth microdilution method; format: functional; conditions: time 20-24 hrs
Pseudomonas aeruginosa [5] = assay: Antibacterial activity against Pseudomonas aeruginosa ATCC 27853 assessed as inhibition in bacterial growth incubated for 20 to 24 hrs by CLSI based broth microdilution method; format: functional; conditions: time 20-24 hrs
Klebsiella pneumoniae [6] = assay: Antibacterial activity against Klebsiella pneumoniae ATCC 700603 assessed as inhibition in bacterial growth incubated for 20 to 24 hrs by CLSI based broth microdilution method; format: functional; conditions: Klebsiella pneumoniae, ATCC 700603, time 20-24 hrs; read-out: MIC
Escherichia coli [7] = assay: Antibacterial activity against Escherichia coli K-12 BW25113 assessed as inhibition in bacterial growth incubated for 20 to 24 hrs by CLSI based broth microdilution method; format: functional; conditions: Escherichia coli, K-12 BW25113, time 20-24 hrs; read-out: MIC
Pseudomonas aeruginosa [8] = assay: Antibacterial activity against Pseudomonas aeruginosa NCTC 11451 assessed as inhibition in bacterial growth incubated for 20 to 24 hrs by CLSI based broth microdilution method; format: functional; conditions: Pseudomonas aeruginosa, NCTC 11451, time 20-24 hrs; read-out: MIC
Acinetobacter baumannii [9] = assay: Antibacterial activity against Acinetobacter baumannii ATCC BAA-747 assessed as inhibition in bacterial growth incubated for 20 to 24 hrs by CLSI based broth microdilution method; format: functional; conditions: Acinetobacter baumannii, ATCC BAA-747, time 20-24 hrs; read-out: MIC
Escherichia coli [10] = assay: Antibacterial activity against Escherichia coli ATCC BAA-2340 assessed as inhibition in bacterial growth incubated for 20 to 24 hrs by CLSI based broth microdilution method; format: functional; conditions: Escherichia coli, ATCC BAA-2340, time 20-24 hrs; read-out: MIC
Staphylococcus aureus [11] = assay: Antibacterial activity against Staphylococcus aureus ATCC BAA-1556 assessed as inhibition in bacterial growth incubated for 20 to 24 hrs by CLSI based broth microdilution method; format: functional; conditions: Staphylococcus aureus, ATCC BAA-1556, time 20-24 hrs; read-out: MIC
Klebsiella pneumoniae [12] = assay: Antibacterial activity against Klebsiella pneumoniae ATCC BAA-2146 assessed as inhibition in bacterial growth incubated for 20 to 24 hrs by CLSI based broth microdilution method; format: functional; conditions: Klebsiella pneumoniae, ATCC BAA-2146, time 20-24 hrs; read-out: MIC
Klebsiella pneumoniae [13] = assay: Antibacterial activity against Klebsiella pneumoniae ATCC 10031 assessed as inhibition in bacterial growth incubated for 20 to 24 hrs by CLSI based broth microdilution method; format: functional; conditions: time 20-24 hrs
[14] = Lipophilicity, log D of compound at pH 7.4; format: physicochemical; conditions: buffer
Acinetobacter baumannii [15] = assay: Antibacterial activity against Acinetobacter baumannii ATCC 19606 assessed as inhibition in bacterial growth incubated for 20 to 24 hrs by CLSI based broth microdilution method; format: functional; conditions: time 20-24 hrs
Escherichia coli [16] = assay: Antibacterial activity against Escherichia coli ATCC 35218 assessed as inhibition in bacterial growth incubated for 20 to 24 hrs by CLSI based broth microdilution method; format: functional; conditions: Escherichia coli, ATCC 35218, time 20-24 hrs; read-out: MIC
Escherichia coli [17] = assay: Antibacterial activity against Escherichia coli ATCC 25922 assessed as inhibition in bacterial growth incubated for 20 to 24 hrs by CLSI based broth microdilution method; format: functional; conditions: time 20-24 hrs
Klebsiella pneumoniae [18] = assay: Antibacterial activity against Klebsiella pneumoniae ATCC BAA-1705 assessed as inhibition in bacterial growth incubated for 20 to 24 hrs by CLSI based broth microdilution method; format: functional; conditions: time 20-24 hrs
Acinetobacter baumannii [19] = assay: Antibacterial activity against Acinetobacter baumannii ATCC 51432 assessed as inhibition in bacterial growth incubated for 20 to 24 hrs by CLSI based broth microdilution method; format: functional; conditions: Acinetobacter baumannii, ATCC 51432, time 20-24 hrs; read-out: MIC
DNA gyrase = DNA gyrase (Escherichia coli, UniProt P0AES4+P0AES6); assay: Inhibition of Escherichia coli DNA gyrase incubated for 80 mins by Transcreener ADP2 FI assay; format: protein-complex assay
[20] = Stability in rat plasma; format: ADME, cell-free
hERG (KCNH2) [21] = target: T1, hERG (KCNH2) (Homo sapiens, UniProt Q12809); assay: Inhibition of hERG potassium channel expressed in CHO cells at 1 uM by electrophysiological patch clamp assay relative to control; format: toxicity, cell-based; conditions: CHO cells expressing hERG
[22] = Stability in mouse plasma; format: ADME, cell-free
hERG (KCNH2) [23] = target: T1, hERG (KCNH2); assay: Inhibition of hERG potassium channel expressed in CHO cells at 10 uM by electrophysiological patch clamp assay relative to control; format: toxicity, cell-based; conditions: CHO cells expressing hERG
[24] = target: Voltage-gated inwardly rectifying potassium channel KCNH2 (Homo sapiens, UniProt Q12809); assay: (§1) Inhibition of hERG potassium channel expressed in CHO cells by electrophysiological patch clamp assay; format: toxicity, cell-based
[25] = Stability in human plasma; format: ADME, cell-free
hERG (KCNH2) [26] = target: T1, hERG (KCNH2); assay: as §1; format: toxicity, cell-based; conditions: human, CHO cells expressing hERG
[27] = Stability in rat plasma assessed as parent compound remaining after 5 hrs relative to control; format: ADME, cell-free; conditions: read-out: Stability
[28] = Stability in human plasma assessed as parent compound remaining after 5 hrs relative to control; format: ADME, cell-free; conditions: read-out: Stability

T1 sequence (Q12809 whole entry): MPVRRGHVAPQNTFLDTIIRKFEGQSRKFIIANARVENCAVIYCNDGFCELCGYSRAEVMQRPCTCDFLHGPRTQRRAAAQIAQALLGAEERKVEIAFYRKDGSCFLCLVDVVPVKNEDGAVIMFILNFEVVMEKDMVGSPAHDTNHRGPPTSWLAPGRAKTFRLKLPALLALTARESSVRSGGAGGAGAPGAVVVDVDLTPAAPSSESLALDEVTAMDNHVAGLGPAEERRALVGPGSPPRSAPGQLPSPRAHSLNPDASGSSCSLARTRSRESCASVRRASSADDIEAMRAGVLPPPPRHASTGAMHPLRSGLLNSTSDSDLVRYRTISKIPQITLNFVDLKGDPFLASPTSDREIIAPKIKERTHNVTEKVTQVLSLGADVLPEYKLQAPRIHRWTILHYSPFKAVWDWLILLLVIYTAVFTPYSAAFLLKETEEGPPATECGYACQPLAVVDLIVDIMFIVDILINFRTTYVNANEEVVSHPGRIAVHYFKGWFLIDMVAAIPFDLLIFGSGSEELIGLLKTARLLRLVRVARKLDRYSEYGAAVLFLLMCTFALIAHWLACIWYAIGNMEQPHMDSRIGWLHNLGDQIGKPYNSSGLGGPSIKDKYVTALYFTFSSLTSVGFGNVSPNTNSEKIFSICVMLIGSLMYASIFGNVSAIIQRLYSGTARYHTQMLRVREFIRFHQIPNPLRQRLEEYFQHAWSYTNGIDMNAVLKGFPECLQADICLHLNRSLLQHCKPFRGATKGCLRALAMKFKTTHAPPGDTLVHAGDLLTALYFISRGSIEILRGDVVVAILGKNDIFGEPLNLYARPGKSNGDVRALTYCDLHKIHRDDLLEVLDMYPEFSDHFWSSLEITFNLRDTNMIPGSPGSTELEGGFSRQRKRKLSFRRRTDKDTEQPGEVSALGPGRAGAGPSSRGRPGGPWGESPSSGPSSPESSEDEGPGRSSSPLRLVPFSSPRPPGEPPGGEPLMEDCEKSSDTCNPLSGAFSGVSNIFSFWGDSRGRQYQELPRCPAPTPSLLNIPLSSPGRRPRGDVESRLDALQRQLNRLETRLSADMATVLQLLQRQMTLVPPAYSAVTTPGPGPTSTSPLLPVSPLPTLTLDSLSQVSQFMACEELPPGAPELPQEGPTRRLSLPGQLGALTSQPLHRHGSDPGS
Sequence of Voltage-gated inwardly rectifying potassium channel KCNH2 (Q12809 whole entry): as above

MIC (Pseudomonas aeruginosa [1]) [µg/mL] | IC50 [2] [nM] | MIC (Staphylococcus aureus [3]) [µg/mL] | MIC (Escherichia coli [4]) [µg/mL] | MIC (Pseudomonas aeruginosa [5]) [µg/mL] | MIC (Klebsiella pneumoniae [6]) [µg/mL] | MIC (Escherichia coli [7]) [µg/mL] | MIC (Pseudomonas aeruginosa [8]) [µg/mL] | MIC (Acinetobacter baumannii [9]) [µg/mL] | MIC (Escherichia coli [10]) [µg/mL] | MIC (Staphylococcus aureus [11]) [µg/mL] | MIC (Klebsiella pneumoniae [12]) [µg/mL] | MIC (Klebsiella pneumoniae [13]) [µg/mL] | MIC (Acinetobacter baumannii [15]) [µg/mL] | MIC (Escherichia coli [16]) [µg/mL] | MIC (Escherichia coli [17]) [µg/mL] | MIC (Klebsiella pneumoniae [18]) [µg/mL] | MIC (Acinetobacter baumannii [19]) [µg/mL] | IC50 (DNA gyrase) [nM] | Structure (SMILES) | inhibition at 1 µM (hERG (KCNH2) [21]) [%] | also measured
32 (≈ 63.8 µM) | 27 | 0.25 (≈ 0.498 µM) | ≤ 0.06 | 8 (≈ 16 µM) | 64 (≈ 128 µM) | 4 (≈ 7.98 µM) | 64 (≈ 128 µM) | 4 (≈ 7.98 µM) | 16 (≈ 31.9 µM) | 1 (≈ 1.99 µM) | 64 (≈ 128 µM) | 0.125 (≈ 0.249 µM) | 8 (≈ 16 µM) | 8 (≈ 16 µM) | 8 (≈ 16 µM) | 64 (≈ 128 µM) | 8 (≈ 16 µM) | 170 | CC(N)COc1cc(F)c2c(c1)CC(CCOCC1CN(c3cnc4c(n3)NC(=O)CO4)C(=O)O1)C2 (stereo not drawn) | – | logD [14]: 0.22
2 (≈ 3.69 µM) | 8 | 0.25 (≈ 0.462 µM) | ≤ 0.06 | 1 (≈ 1.85 µM) | 2 (≈ 3.69 µM) | ≤ 0.06 | 2 (≈ 3.69 µM) | 0.125 (≈ 0.231 µM) | 0.25 (≈ 0.462 µM) | 0.5 (≈ 0.923 µM) | 16 (≈ 29.5 µM) | ≤ 0.06 | 4 (≈ 7.39 µM) | 0.25 (≈ 0.462 µM) | 0.125 (≈ 0.231 µM) | 2 (≈ 3.69 µM) | 8 (≈ 14.8 µM) | 38 | C[C@H](C(=O)Nc1cc(F)c2c(c1)CC(CNCCC1CN(c3cnc4c(n3)NC(=O)CO4)C(=O)O1)C2)N(C)C (stereo in doubt; 2e) | < 1 | Stability [20]: Stable; Stability [22]: Stable; inhibition at 10 µM (hERG (KCNH2) [23]): < 1%; IC50 [24]: > 20000 nM; IC20 ([24]; human, cho): > 10000 nM; Stability [25]: Stable
1 (≈ 1.95 µM) | 39 | ≤ 0.06 | ≤ 0.06 | 0.5 (≈ 0.977 µM) | 2 (≈ 3.91 µM) | ≤ 0.06 | 2 (≈ 3.91 µM) | ≤ 0.06 | 0.25 (≈ 0.489 µM) | 0.125 (≈ 0.244 µM) | 1 (≈ 1.95 µM) | ≤ 0.06 | 0.5 (≈ 0.977 µM) | 0.125 (≈ 0.244 µM) | 0.125 (≈ 0.244 µM) | 1 (≈ 1.95 µM) | 1 (≈ 1.95 µM) | 100 | NC1(COc2cc(F)c3c(c2)CC(CNCCC2CN(c4ccc5c(n4)NC(=O)CO5)C(=O)O2)C3)CC1 (stereo not drawn) | < 1 | inhibition at 10 µM (hERG (KCNH2) [23]): 45%; IC20 (hERG (KCNH2) [26]): 3100 nM; IC50 [24]: > 10000 nM
2 (≈ 3.79 µM) | 3 | 0.5 (≈ 0.948 µM) | ≤ 0.06 | 0.5 (≈ 0.948 µM) | 2 (≈ 3.79 µM) | ≤ 0.06 | 2 (≈ 3.79 µM) | 0.25 (≈ 0.474 µM) | 0.125 (≈ 0.237 µM) | 1 (≈ 1.9 µM) | 4 (≈ 7.58 µM) | ≤ 0.06 | 8 (≈ 15.2 µM) | 0.125 (≈ 0.237 µM) | 0.125 (≈ 0.237 µM) | 2 (≈ 3.79 µM) | 16 (≈ 30.3 µM) | 26 | CN(C)CC(=O)Nc1cc(F)c2c(c1)CC(CNCCC1CN(c3cnc4c(n3)NC(=O)CO4)C(=O)O1)C2 (stereo not drawn) | < 1 | Stability [20]: Unstable; Stability [22]: Unstable; inhibition at 10 µM (hERG (KCNH2) [23]): < 1%; IC20 (hERG (KCNH2) [26]): > 10000 nM; IC50 [24]: > 20000 nM; remaining at 5 h [27]: 99%; remaining at 5 h [28]: 76%; Stability [25]: Unstable
4 (≈ 7.2 µM) | 13 | ≤ 0.06 | ≤ 0.06 | 1 (≈ 1.8 µM) | 4 (≈ 7.2 µM) | ≤ 0.06 | 4 (≈ 7.2 µM) | ≤ 0.06 | 0.25 (≈ 0.45 µM) | 0.25 (≈ 0.45 µM) | 4 (≈ 7.2 µM) | ≤ 0.06 | 2 (≈ 3.6 µM) | 0.25 (≈ 0.45 µM) | 0.125 (≈ 0.225 µM) | 2 (≈ 3.6 µM) | 4 (≈ 7.2 µM) | 43 | CN(C)C(C)(C)C(=O)Nc1cc(F)c2c(c1)CC(CNCCC1CN(c3cnc4c(n3)NC(=O)CO4)C(=O)O1)C2 (stereo not drawn) | 5 | Stability [20]: Stable; Stability [22]: Stable; inhibition at 10 µM (hERG (KCNH2) [23]): 57%; IC20 (hERG (KCNH2) [26]): 3000 nM; IC50 [24]: 8200 nM; Stability [25]: Stable
